Data as given in ChEMBL document CHEMBL1156471, “Targeting host cell furin proprotein convertases as a therapeutic strategy against bacterial toxins and viral pathogens” (J Biol Chem, 2007).
Activity calls are given as the source filed them. The rule behind the calls is not given here.

test system: U-251; test: Inhibition of proprotein convertase-mediated anthrax protective antigen-83 processing in human U251 cells at 20 uM by Western blot; format: cell-based; conditions: Bacillus anthracis

In the case of H-TPRARRRKKRF-NH2 [listing 1 of 2 here], the Activity is reported as “Active”.
With H-TPRARRRKKRF-OH the Activity was “Active”.
With H-TPRARRRKKRT-OH the Activity was “Active”.
With H-TPRARRRKKRW-NH2 the Activity was “Active”.
In the case of H-TPRARRRKKRW-OH [listing 1 of 2 here], the Activity is reported as “Active”.
H-TPRARRRKKRY-NH2 was tested, and the Activity was “Active”.
H-TPRARRRKKRY-OH [listing 1 of 2 here] was tested, and the Activity was “Active”.

biological target: Furin (Homo sapiens, UniProt P09958); conditions: not given
Sequence (P09958 whole entry): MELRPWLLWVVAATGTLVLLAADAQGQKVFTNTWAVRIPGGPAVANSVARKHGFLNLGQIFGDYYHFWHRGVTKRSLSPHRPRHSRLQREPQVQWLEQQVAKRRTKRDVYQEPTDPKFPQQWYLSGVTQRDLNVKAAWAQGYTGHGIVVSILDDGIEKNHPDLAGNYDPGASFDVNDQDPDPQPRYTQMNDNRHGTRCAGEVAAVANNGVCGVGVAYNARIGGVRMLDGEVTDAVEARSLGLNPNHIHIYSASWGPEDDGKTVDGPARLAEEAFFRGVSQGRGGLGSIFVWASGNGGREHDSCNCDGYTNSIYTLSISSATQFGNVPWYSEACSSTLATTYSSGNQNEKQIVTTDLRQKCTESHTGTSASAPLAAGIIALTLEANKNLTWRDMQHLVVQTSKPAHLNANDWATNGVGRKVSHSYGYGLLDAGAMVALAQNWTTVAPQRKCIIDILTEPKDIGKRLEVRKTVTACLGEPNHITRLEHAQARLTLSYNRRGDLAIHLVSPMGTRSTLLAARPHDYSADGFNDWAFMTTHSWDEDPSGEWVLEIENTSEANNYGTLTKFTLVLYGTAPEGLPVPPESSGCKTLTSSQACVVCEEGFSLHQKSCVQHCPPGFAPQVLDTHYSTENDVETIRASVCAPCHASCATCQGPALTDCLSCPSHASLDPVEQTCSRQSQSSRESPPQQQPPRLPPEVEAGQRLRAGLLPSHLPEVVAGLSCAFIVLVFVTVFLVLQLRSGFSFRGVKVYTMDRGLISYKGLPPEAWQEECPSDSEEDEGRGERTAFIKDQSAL

H-GAGAGATPRARRRKKRF-OH and H-GAGAGATPRARRRKKRT-OH are within 1.5-fold of each other in Ki: 56 nM for the first, 47 nM for the second.

Compared with H-GAGAGATPRARRRKKRY-OH, H-GGGGGGTPQRARRRKKRW-OH is 1.5-fold higher in Ki: 57 nM for the first, 88 nM for the second.

H-GGGGGGTPRARRRKKRF-OH and H-GGGGGGTPRARRRKKRT-OH are within 1.5-fold of each other in Ki: 45 nM for the first, 66 nM for the second.

H-GGGGGGTPRARRRKKRY-OH and H-GGGTPQRARRRKKRW-OH are within 1.5-fold of each other in Ki: 54 nM for the first, 67 nM for the second.

Going from H-GGGTPRARRRKKRF-OH to H-GGGTPRARRRKKRT-OH, the Ki falls from 67 nM to 39 nM (1.7-fold). The second binds more tightly here.

Going from H-GGGTPRARRRKKRY-OH to H-TAAERRRKKR-OH, the Ki rises from 42 nM to over 100 nM. The first binds more tightly here.

H-TAAERRRKKRG-OH and H-TAAERRRKKRV-OH cannot be ordered by Ki: over 100 nM for the first, over 100 nM for the second.

H-TARERRRKKR-OH and H-TARERRRKKRG-NH2 cannot be ordered by Ki: over 100 nM for the first, over 100 nM for the second.

H-TARERRRKKRG-OH and H-TARERRRKKRV-OH cannot be ordered by Ki: over 100 nM for the first, over 100 nM for the second.

H-TPAAARRKKR-OH and H-TPAAARRKKRG-OH cannot be ordered by Ki: over 100 nM for the first, over 100 nM for the second.

H-TPAAARRKKRV-OH and H-TPAARRRKKR-OH cannot be ordered by Ki: over 100 nM for the first, over 100 nM for the second.

H-TPAARRRKKRG-OH and H-TPAARRRKKRV-OH cannot be ordered by Ki: over 100 nM for the first, over 100 nM for the second.

H-TPAERRRKKR-OH and H-TPAERRRKKRG-NH2 cannot be ordered by Ki: over 100 nM for the first, over 100 nM for the second.

H-TPAERRRKKRG-OH and H-TPAERRRKKRV-OH cannot be ordered by Ki: over 100 nM for the first, over 100 nM for the second.

H-TPQRARRRKKRA-OH and H-TPQRARRRKKRC-OH cannot be ordered by Ki: 115 nM for the first, over 100 nM for the second.

Compared with H-TPQRARRRKKRD-OH, H-TPQRARRRKKRE-OH is 2.1-fold higher in Ki: 50 nM for the first, 103 nM for the second.

H-TPQRARRRKKRH-OH and H-TPQRARRRKKRI-OH cannot be ordered by Ki: over 100 nM for the first, over 100 nM for the second.

First: H-TPQRARRRKKRL-OH
Second: H-TPQRARRRKKRM-OH
The Ki of the first is higher: over 100 nM for the first, 58 nM for the second. The second binds more tightly here.

H-TPQRARRRKKRN-OH and H-TPQRARRRKKRP-OH cannot be ordered by Ki: over 100 nM for the first, over 100 nM for the second.

H-TPQRARRRKKRQ-OH and H-TPQRARRRKKRS-OH cannot be ordered by Ki: over 100 nM for the first, over 100 nM for the second.

Compared with H-TPQRARRRKKRV-OH, H-TPQRDRRRKKRG-OH is higher in Ki: 48 nM for the first, over 100 nM for the second. The first binds more tightly here.

H-TPQRFRRRKKRG-OH and H-TPQRGRRRKKRG-OH cannot be ordered by Ki: over 100 nM for the first, over 100 nM for the second.

H-TPQRHRRRKKRG-OH and H-TPQRIRRRKKRG-OH cannot be ordered by Ki: over 100 nM for the first, over 100 nM for the second.

H-TPQRNRRRKKRG-OH and H-TPQRPRRRKKRG-OH cannot be ordered by Ki: over 100 nM for the first, over 100 nM for the second.

H-TPQRQRRRKKRG-OH and H-TPQRSRRRKKRG-OH cannot be ordered by Ki: over 100 nM for the first, over 100 nM for the second.

H-TPQRTRRRKKRG-OH and H-TPQRVRRRKKRG-OH cannot be ordered by Ki: over 100 nM for the first, over 100 nM for the second.

H-TPQRWRRRKKRG-OH and H-TPQRYRRRKKRG-OH cannot be ordered by Ki: over 100 nM for the first, over 100 nM for the second.

H-TPRAARRKKR-OH and H-TPRAARRKKRG-OH cannot be ordered by Ki: over 100 nM for the first, over 100 nM for the second.

H-TPRAARRKKRV-OH and H-TPRARRRKKRA-NH2 cannot be ordered by Ki: over 100 nM for the first, over 100 nM for the second.

Going from H-TPRARRRKKRA-OH to H-TPRARRRKKRD-OH, the Ki falls from over 100 nM to 56 nM.

H-TPRARRRKKRE-NH2 and H-TPRARRRKKRE-OH cannot be ordered by Ki: over 100 nM for the first, over 100 nM for the second.

H-TPRARRRKKRF-NH2 [listing 2 of 2 here] and H-TPRARRRKKRF-OH are the same in Ki: 38 nM for the first, 38 nM for the second.

H-TPRARRRKKRG-NH2 and H-TPRARRRKKRG-OH are the same in Ki: 57 nM for the first, 57 nM for the second.

H-TPRARRRKKRH-NH2 and H-TPRARRRKKRH-OH cannot be ordered by Ki: over 100 nM for the first, over 100 nM for the second.

First: H-TPRARRRKKRI-OH
Second: H-TPRARRRKKRK-NH2
The Ki of the first is lower: 30 nM for the first, over 100 nM for the second.

Compared with H-TPRARRRKKRK-OH, H-TPRARRRKKRN-NH2 is lower in Ki: over 100 nM for the first, 45 nM for the second.

Going from H-TPRARRRKKRN-OH to H-TPRARRRKKRP-NH2, the Ki rises from 45 nM to over 100 nM.

Compared with H-TPRARRRKKRP-OH, H-TPRARRRKKRQ-NH2 is lower in Ki: over 100 nM for the first, 47 nM for the second.

First: H-TPRARRRKKRQ-OH
Second: H-TPRARRRKKRR-NH2
The Ki of the first is lower: 47 nM for the first, over 100 nM for the second.

H-TPRARRRKKRR-OH and H-TPRARRRKKRS-NH2 cannot be ordered by Ki: over 100 nM for the first, over 100 nM for the second.

Compared with H-TPRARRRKKRS-OH, H-TPRARRRKKRT-OH is lower in Ki: over 100 nM for the first, 23 nM for the second.

H-TPRARRRKKRV-NH2 and H-TPRARRRKKRV-OH are the same in Ki: 80 nM for the first, 80 nM for the second.

H-TPRARRRKKRW-NH2 and H-TPRARRRKKRW-OH [listing 2 of 2 here] are the same in Ki: 59 nM for the first, 59 nM for the second.

H-TPRARRRKKRY-NH2 and H-TPRARRRKKRY-OH [listing 2 of 2 here] are the same in Ki: 53 nM for the first, 53 nM for the second.

H-TPRCRRRKKRG-NH2 and H-TPRCRRRKKRG-OH cannot be ordered by Ki: over 100 nM for the first, over 100 nM for the second.

H-TPRDRRRKKRG-NH2 and H-TPRDRRRKKRG-OH cannot be ordered by Ki: over 100 nM for the first, over 100 nM for the second.

H-TPREAAAKKR-OH and H-TPREAAAKKRG-OH cannot be ordered by Ki: over 100 nM for the first, over 100 nM for the second.

H-TPREAAAKKRV-OH and H-TPREAARKKR-OH cannot be ordered by Ki: over 100 nM for the first, over 100 nM for the second.

H-TPREAARKKRG-OH and H-TPREAARKKRV-OH cannot be ordered by Ki: over 100 nM for the first, over 100 nM for the second.

H-TPREARRKKR-OH and H-TPREARRKKRG-NH2 cannot be ordered by Ki: over 100 nM for the first, over 100 nM for the second.

H-TPREARRKKRG-OH and H-TPREARRKKRV-OH cannot be ordered by Ki: over 100 nM for the first, over 100 nM for the second.

H-TPRERAAKKR-OH and H-TPRERAAKKRG-OH cannot be ordered by Ki: over 100 nM for the first, over 100 nM for the second.

H-TPRERAAKKRV-OH and H-TPRERARKKR-OH cannot be ordered by Ki: over 100 nM for the first, over 100 nM for the second.

H-TPRERARKKRG-NH2 and H-TPRERARKKRG-OH cannot be ordered by Ki: over 100 nM for the first, over 100 nM for the second.

H-TPRERARKKRV-OH and H-TPRERRAAKR-OH cannot be ordered by Ki: over 100 nM for the first, over 100 nM for the second.

H-TPRERRAAKRG-OH and H-TPRERRAAKRV-OH cannot be ordered by Ki: over 100 nM for the first, over 100 nM for the second.

H-TPRERRAKKR-OH and H-TPRERRAKKRG-NH2 cannot be ordered by Ki: over 100 nM for the first, over 100 nM for the second.

H-TPRERRAKKRG-OH and H-TPRERRAKKRV-OH cannot be ordered by Ki: over 100 nM for the first, over 100 nM for the second.

H-TPRERRRAARV-OH and H-TPRERRRAKR-OH cannot be ordered by Ki: over 100 nM for the first, over 100 nM for the second.

H-TPRERRRAKRG-NH2 and H-TPRERRRAKRG-OH cannot be ordered by Ki: over 100 nM for the first, over 100 nM for the second.

H-TPRERRRAKRV-OH and H-TPRERRRKAA-OH cannot be ordered by Ki: over 100 nM for the first, over 100 nM for the second.

H-TPRERRRKAAG-OH and H-TPRERRRKAAV-OH cannot be ordered by Ki: over 100 nM for the first, over 100 nM for the second.

H-TPRERRRKAR-OH and H-TPRERRRKARG-NH2 cannot be ordered by Ki: over 100 nM for the first, over 100 nM for the second.

H-TPRERRRKARG-OH and H-TPRERRRKARV-OH cannot be ordered by Ki: over 100 nM for the first, over 100 nM for the second.

H-TPRERRRKKA-OH and H-TPRERRRKKAG-NH2 cannot be ordered by Ki: over 100 nM for the first, over 100 nM for the second.

H-TPRERRRKKAG-OH and H-TPRERRRKKAV-OH cannot be ordered by Ki: over 100 nM for the first, over 100 nM for the second.

H-TPRERRRKKR-OH and H-TPRERRRKKRV-OH cannot be ordered by Ki: over 100 nM for the first, over 100 nM for the second.

H-TPRFRRRKKRG-NH2 and H-TPRFRRRKKRG-OH cannot be ordered by Ki: over 100 nM for the first, over 100 nM for the second.

H-TPRGRRRKKRG-NH2 and H-TPRGRRRKKRG-OH cannot be ordered by Ki: over 100 nM for the first, over 100 nM for the second.

H-TPRHRRRKKRG-NH2 and H-TPRHRRRKKRG-OH cannot be ordered by Ki: over 100 nM for the first, over 100 nM for the second.

H-TPRIRRRKKRG-NH2 and H-TPRIRRRKKRG-OH cannot be ordered by Ki: over 100 nM for the first, over 100 nM for the second.

H-TPRLRRRKKRG-NH2 and H-TPRLRRRKKRG-OH cannot be ordered by Ki: over 100 nM for the first, over 100 nM for the second.

H-TPRMRRRKKRG-NH2 and H-TPRMRRRKKRG-OH cannot be ordered by Ki: over 100 nM for the first, over 100 nM for the second.

H-TPRNRRRKKRG-NH2 and H-TPRNRRRKKRG-OH cannot be ordered by Ki: over 100 nM for the first, over 100 nM for the second.

H-TPRPRRRKKRG-NH2 and H-TPRPRRRKKRG-OH cannot be ordered by Ki: over 100 nM for the first, over 100 nM for the second.

H-TPRQRRRKKRG-NH2 and H-TPRQRRRKKRG-OH cannot be ordered by Ki: over 100 nM for the first, over 100 nM for the second.

H-TPRRRRRKKRG-NH2 and H-TPRRRRRKKRG-OH cannot be ordered by Ki: over 100 nM for the first, over 100 nM for the second.

H-TPRSRRRKKRG-NH2 and H-TPRSRRRKKRG-OH cannot be ordered by Ki: over 100 nM for the first, over 100 nM for the second.

H-TPRTRRRKKRG-NH2 and H-TPRTRRRKKRG-OH cannot be ordered by Ki: over 100 nM for the first, over 100 nM for the second.

H-TPRVRRRKKRG-NH2 and H-TPRVRRRKKRG-OH cannot be ordered by Ki: over 100 nM for the first, over 100 nM for the second.

H-TPRWRRRKKRG-NH2 and H-TPRWRRRKKRG-OH cannot be ordered by Ki: over 100 nM for the first, over 100 nM for the second.

H-TPRYRRRKKRG-NH2 and H-TPRYRRRKKRG-OH cannot be ordered by Ki: over 100 nM for the first, over 100 nM for the second.
